Legend:
[1] = Scintiscan (Anger camera) monitoring of distribution of radioactivity after intravenous administration, rabbit; assay type: in vivo, New Zealand rabbit; set-up: key: -: no significant measured radioactivity; relative amounts of measured radioactivity ranging from (-) for no significant measured radioactivity to (+++) for the maximum measured radioactivity; relative amounts of measured radioactivity ranging from (-) for no significant measured radioactivity to (+++) for the maximum measured radioactivity; +++: the maximum measured radioactivity; conditions: i.v., 1.21 mg, 0.81 mCi
Protocol: Approximately 0.2 milliliter of a solution of the complex formed from technetium-99m and 0.95 milligram of fructose 1,6-diphosphate and prepared generally as described in Example 1 and having a radioactivity of 0.5 millicurie was administered intravenously to an anesthetized New Zealand rabbit weighing about 3 kilograms. Approximately the same volume of a solution of the complex formed from technetium-99m and 1.21 milligrams of fructose 6-phosphate prepared generally as described in Example 2, having a radioactivity of 0.81 millicurie was similarly administered to a second New Zealand rabbit of about the same weight. The injections were made using a 1 milliliter tuberculin syringe connected to a #23 gauge indwelling cannula inserted into a marginal ear vein. Each rabbit was positioned in a full ventral position for 2.5 to 3 hours during which time the disposition of the radioactivity in the rabbit in this position was monitored using a computer-augmented Anger camera. The measurements and results are discussed hereinafter, and the results of the test using the fructose 1,6-diphosphate and fructose 6-phosphate complexes are presented in Tables 1 and 2, respectively.
(§1) At various times after the aforesaid administrations of solutions of complexes of this invention, which times are indicated in Tables 1-6, scintiscan photographs and video tape recordings were taken of the aforesaid rabbit, beagles and monkeys using the Anger camera. This instrument was a Pho-Gamma LFOV Scintillation Camera System, Model 6413, fitted with a Model 3137 Vari-Back Camera, a Model 3122 Data-Store/Playback System and a Model 27851 Analog-Digital/Digital-AnalogConverter (all Searle Radiographics, Inc.). This entire system was interfaced with a Xerox 530 computer (Xerox Corp., Minneapolis, Minn.) which was programmed to record net counts per unit of time and percents of total counts in individual organs and to plot organ radioactivity versus time. The camera was operated with a 140 KeV high resolution Type II converging collimator using a 20 percent technetium-99m window. Generally 400,000 counts were accumulated on each scintiscan using both video tape and self-developing film, with the animal in the full ventral position. The photographs represented a visualization of the anatomic relationships in the kidneys.
(§2) Tables 1-6 contain semi-quantitative representations of the distribution of radioactivity in the organs of the test animals determined from the scintiscans. In Tables 1-6, (--), (+), (++) and (+++) indicate relative amounts of measured radioactivity ranging from (-) for no significant measured radioactivity to (+++) for the maximum measured radioactivity.

[2] = Scintiscan (Anger camera) monitoring of distribution of radioactivity after intravenous administration, female beagle dog; assay type: in vivo; set-up: key: -: no significant measured radioactivity; relative amounts of measured radioactivity ranging from (-) for no significant measured radioactivity to (+++) for the maximum measured radioactivity; relative amounts of measured radioactivity ranging from (-) for no significant measured radioactivity to (+++) for the maximum measured radioactivity; +++: the maximum measured radioactivity; conditions: i.v., 7.3 mg, 0.84 mCi
Protocol: (§3) This procedure used with the rabbits was repeated with additional anesthetized animals: two female beagle dogs and two female rhesus monkeys. In these cases, however, unlike the cases of the rabbits, the complex solutions, again prepared generally as described in Examples 1 and 2, were injected intravenously in a saphenous vein of the dogs and monkeys.
Three milliliters of a solution of the complex formed from technetium-99m and 9.4 milligrams of fructose 1,6-diphosphate and having a radioactivity of 0.5 mCi were administered to one such dog weighing 11.7 kilograms. In addition, 1.6 milliliters of a solution of the complex formed from technetium-99m and 7.3 milligrams of fructose 6-phosphate having a radioactivity of 0.84 mCi were administered to a second such dog weighing 10.5 kilograms.
as §1, §2

[3] = Appearance of radioactive complex in kidneys and urinary bladder calculated from video tape measurements (FIG. 1), male mongrel dog; assay type: in vivo; conditions: i.v., 3-5 mg, 3.5 mCi, about 45 min
Description: as §1
The appearance in the kidneys and urinary bladder of a male mongrel dog weighing 14.1 kilograms, of the radioactive complex formed from technetium-99m and 3-5 milligrams of fructose 6-phosphate administered intravenously as described above in a 0.5-1.0 milliliter solution prepared as in Example 2 and having a radioactivity of 3.5 mCi, was calculated from video tape measurements by the computer and is plotted in FIG. 1 as the percentage of total radioactivity administered in the form of the radioactive complex versus time after administration. At about 45 minutes after administration, about 60 percent of the total radioactivity administered was concentrated in the urinary bladder, with less than 7 percent of the total dose of the radioactive complex in the kidneys.

[4] = Plasma clearance after intravenous injection, dogs (gamma spectrometer); assay type: in vivo, dog (male mongrel and female beagle); conditions: i.v., four tests
Protocol: In each case about 0.5-2 milliliters of a solution of the complex having radioactivity of about 1-4 mCi and formed from 0.5-10 milligrams of complexing agent were administered. […] The dogs ranged in weight from 6 to 15 kilograms. Periodically blood samples were removed from the jugular vein of the dogs and collected in vacuum tubes containing the disodium salt of ethylenediamine tetracetic acid and the radioactivity of one milliliter samples of plasma were measured in a gamma spectrometer.
The gamma spectrometer employed was a Model 1185 Gamma Scintillation Spectrometer (Searle Analytic Inc., Des Plaines, Ill.). One milliliter samples of plasma or whole blood were analyzed for technetium-99m, and samples were counted for 1 minute. As determined by the computer, the curve in FIG. 2 and the five other corresponding curves (not shown) from the other tests with the dogs were the best fitting curves passing through the plots of experimentally measured radioactivities.

[5] = Scintiscan (Anger camera) monitoring of distribution of radioactivity after intravenous administration, rhesus monkey; assay type: in vivo; set-up: key: -: no significant measured radioactivity; relative amounts of measured radioactivity ranging from (-) for no significant measured radioactivity to (+++) for the maximum measured radioactivity; relative amounts of measured radioactivity ranging from (-) for no significant measured radioactivity to (+++) for the maximum measured radioactivity; +++: the maximum measured radioactivity; conditions: i.v., 7.6 mg, 0.79 mCi
Protocol: as §3
Similarly 0.3 milliliter of a solution of the complex formed from technetium-99m and 1.1 milligrams of fructose 1,6-diphosphate having a radioactivity of 1.2 mCi were administered to one such monkey weighing 5.1 kilograms. Also 1.5 milliliters of a solution of the complex formed from technetium-99m and 7.6 milligrams of fructose 6-phosphate having a radioactivity of 0.79 mCi were administered to a second such monkey weighing 6.7 kilograms.
as §1, §2

[6] = cited from earlier work

Molecule: complex of technetium-99m and fructose 6-phosphate
- Relative distribution of complex: Kidneys ([1]; 1 min): ++
- Relative distribution of complex: Urinary Bladder ([1]; 1 min): +
- Relative distribution of complex: Vascular ([1]; 1 min): ++
- Relative distribution of complex: Kidneys ([1]; 30 min): ++
- Relative distribution of complex: Urinary Bladder ([1]; 30 min): ++
- Relative distribution of complex: Vascular ([1]; 30 min): +
- Relative distribution of complex: Kidneys ([1]; 60 min): ++
- Relative distribution of complex: Urinary Bladder ([1]; 60 min): +++
- Relative distribution of complex: Vascular ([1]; 60 min): +
- Relative distribution of complex: Kidneys ([1]; 120 min): +
- Relative distribution of complex: Urinary Bladder ([1]; 120 min): +++
- Relative distribution of complex: Vascular ([1]; 120 min): -
- Relative distribution of complex: Kidneys ([1]; 150 min): +
- Relative distribution of complex: Urinary Bladder ([1]; 150 min): +++
- Relative distribution of complex: Vascular ([1]; 150 min): -
- Relative distribution of complex: Kidneys ([2]; 1 min): ++
- Relative distribution of complex: Urinary Bladder ([2]; 1 min): -
- Relative distribution of complex: Vascular ([2]; 1 min): ++
- Relative distribution of complex: Kidneys ([2]; 6 min): ++
- Relative distribution of complex: Urinary Bladder ([2]; 6 min): +
- Relative distribution of complex: Vascular ([2]; 6 min): +
- Relative distribution of complex: Kidneys ([2]; 25 min): +
- Relative distribution of complex: Urinary Bladder ([2]; 25 min): ++
- Relative distribution of complex: Vascular ([2]; 25 min): +
- Relative distribution of complex: Kidneys ([2]; 30 min): +
- Relative distribution of complex: Urinary Bladder ([2]; 30 min): +++
- Relative distribution of complex: Vascular ([2]; 30 min): +
- Relative distribution of complex: Kidneys ([2]; 40 min): +
- Relative distribution of complex: Urinary Bladder ([2]; 40 min): +++
- Relative distribution of complex: Vascular ([2]; 40 min): -
- Relative distribution of complex: Kidneys ([2]; 50 min): +
- Relative distribution of complex: Urinary Bladder ([2]; 50 min): +++
- Relative distribution of complex: Vascular ([2]; 50 min): -
- Relative distribution of complex: Kidneys ([2]; 60 min): +
- Relative distribution of complex: Urinary Bladder ([2]; 60 min): +++
- Relative distribution of complex: Vascular ([2]; 60 min): -
- Relative distribution of complex: Kidneys ([2]; 70 min): +
- Relative distribution of complex: Urinary Bladder ([2]; 70 min): +++
- Relative distribution of complex: Vascular ([2]; 70 min): -
- Relative distribution of complex: Kidneys ([2]; 80 min): +
- Relative distribution of complex: Urinary Bladder ([2]; 80 min): +++
- Relative distribution of complex: Vascular ([2]; 80 min): -
- Relative distribution of complex: Kidneys ([2]; 90 min): +
- Relative distribution of complex: Urinary Bladder ([2]; 90 min): +++
- Relative distribution of complex: Vascular ([2]; 90 min): -
- percentage of total dose of the radioactive complex in the kidneys [3]: less than 7%
- percentage of total radioactivity administered concentrated in the urinary bladder [3]: about 60%
- radioactivity concentrated in any other organ [3]: No measurable radioactivity
- improved average half time, distributive phase ([4]; single obviously erroneous measurement eliminated, standard deviation 0.025 hour): 0.072 h
- improved average half time, elimination phase ([4]; single obviously erroneous measurement eliminated, standard deviation 0.72 hour): 1.68 h
- average half time, distributive phase ([4]; standard deviation 0.023 hour): 0.088 h
- average half time, elimination phase ([4]; standard deviation 3.29 hours): 3.98 h
- Relative distribution of complex: Kidneys ([5]; 4 min): ++
- Relative distribution of complex: Urinary Bladder ([5]; 4 min): +++
- Relative distribution of complex: Vascular ([5]; 4 min): +
- Relative distribution of complex: Kidneys ([5]; 30 min): ++
- Relative distribution of complex: Urinary Bladder ([5]; 30 min): +++
- Relative distribution of complex: Vascular ([5]; 30 min): +
- Relative distribution of complex: Kidneys ([5]; 50 min): +
- Relative distribution of complex: Urinary Bladder ([5]; 50 min): +++
- Relative distribution of complex: Vascular ([5]; 50 min): -
- Relative distribution of complex: Kidneys ([5]; 65 min): +
- Relative distribution of complex: Urinary Bladder ([5]; 65 min): +++
- Relative distribution of complex: Vascular ([5]; 65 min): -

Molecule: O=C(O)CNC(=O)c1ccccc1[131I] [131I-o-iodohippurate]
- route of excretion ([6]; after intravenous injection): excreted through the kidneys exclusively
- clearance model ([6]; in vivo): appears to follow the two-compartment model
